Where “and” joins values, the source holds several entries; their conditions need not be identical. Identical values can stand only once. Values belong to the molecule of their own block, whether it stands above or below them.
Test system: PDC 899932-113-R3-J6 complex spheroid viability
Assay: Anticancer human tumor 899932-113-R3-J6-PDC patient-derived melanoma cell line growth inhibition [RAS]
Conditions: for viability, T/C: stronger effect = lower value
How it was run: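 Multi-cell-type spheroids: tumor cells plus HUVEC endothelial cells and mesenchymal stem cells. RAS-pathway inhibitors were combined with targeted agents, each dosed in half-log steps down from clinical Cmax, or from 10 microM when Cmax was unknown.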

[1] = curve of first compound, second compound 0.000949 µM
[2] = curve of first compound, second compound 0.003 µM
[3] = curve of first compound, second compound 0.00949 µM
[4] = curve of first compound, second compound 0.03 µM
[5] = curve of first compound, second compound 0.0949 µM
[6] = curve of first compound, second compound 0.3 µM
[7] = second compound 0.000949 µM, first compound 0.0316 µM
[8] = second compound 0.000949 µM, first compound 0.1 µM
[9] = second compound 0.000949 µM, first compound 0.316 µM
[10] = second compound 0.000949 µM, first compound 1 µM
[11] = second compound 0.003 µM, first compound 0.0316 µM
[12] = second compound 0.003 µM, first compound 0.1 µM
[13] = second compound 0.003 µM, first compound 0.316 µM
[14] = second compound 0.003 µM, first compound 1 µM
[15] = second compound 0.00949 µM, first compound 0.0316 µM
[16] = second compound 0.00949 µM, first compound 0.1 µM
[17] = second compound 0.00949 µM, first compound 0.316 µM
[18] = second compound 0.00949 µM, first compound 1 µM
[19] = second compound 0.03 µM, first compound 0.0316 µM
[20] = second compound 0.03 µM, first compound 0.1 µM
[21] = second compound 0.03 µM, first compound 0.316 µM
[22] = second compound 0.03 µM, first compound 1 µM
[23] = second compound 0.0949 µM, first compound 0.0316 µM
[24] = second compound 0.0949 µM, first compound 0.1 µM
[25] = second compound 0.0949 µM, first compound 0.316 µM
[26] = second compound 0.0949 µM, first compound 1 µM
[27] = second compound 0.3 µM, first compound 0.0316 µM
[28] = second compound 0.3 µM, first compound 0.1 µM
[29] = second compound 0.3 µM, first compound 0.316 µM
[30] = second compound 0.3 µM, first compound 1 µM
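Wherever viability, T/C is given: spheroids exposed to agents for seven days before readout; 100% = DMSO vehicle control wells.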

- IC50 [1]: 19.8 nM
- IC50 [2]: 20.7 nM
- IC50 [3]: 20.5 nM
- IC50 [4]: 19.6 nM
- IC50 [5]: 20.9 nM
- IC50 [6]: 18.3 nM
SMILES: Nc1ccn(C2OC(CO)C(O)C2(F)F)c(=O)n1 (stereo not drawn) + CCn1c(-c2cccnc2C(C)OC)c2c3cc(ccc31)N1CCOC(CC(NC(=O)C(C(C)C)N(C)C(=O)C3(F)CCN(C(=O)C#CC(C)(C)N(C)C)CC3)C(=O)N3CCCC(N3)C(=O)OCC(C)(C)C2)C1
- viability, T/C (second compound 0.000949 µM, first compound 0.00316 µM): 103%
- viability, T/C (second compound 0.000949 µM, first compound 0.01 µM): 71.2%
- viability, T/C [7]: 35.9%
- viability, T/C [8]: 20.9%
- viability, T/C [9]: 17.4%
- viability, T/C [10]: 19.2%
- viability, T/C (second compound 0.003 µM, first compound 0.00316 µM): 99.8%
- viability, T/C (second compound 0.003 µM, first compound 0.01 µM): 74.8%
- viability, T/C [11]: 36.3%
- viability, T/C [12]: 17.1%
- viability, T/C [13]: 15.1%
- viability, T/C [14]: 17.8%
- viability, T/C (second compound 0.00949 µM, first compound 0.00316 µM): 103%
- viability, T/C (second compound 0.00949 µM, first compound 0.01 µM): 73.7%
- viability, T/C [15]: 36.4%
- viability, T/C [16]: 19.8%
- viability, T/C [17]: 16.1%
- viability, T/C [18]: 20.6%
- viability, T/C (second compound 0.03 µM, first compound 0.00316 µM): 101%
- viability, T/C (second compound 0.03 µM, first compound 0.01 µM): 70.3%
- viability, T/C [19]: 36.4%
- viability, T/C [20]: 19.2%
- viability, T/C [21]: 19%
- viability, T/C [22]: 19.8%
- viability, T/C (second compound 0.0949 µM, first compound 0.00316 µM): 95.2%
- viability, T/C (second compound 0.0949 µM, first compound 0.01 µM): 73.4%
- viability, T/C [23]: 37.4%
- viability, T/C [24]: 20.5%
- viability, T/C [25]: 19.3%
- viability, T/C [26]: 20.1%
- viability, T/C (second compound 0.3 µM, first compound 0.00316 µM): 84.4%
- viability, T/C (second compound 0.3 µM, first compound 0.01 µM): 69.4%
- viability, T/C [27]: 32.7%
- viability, T/C [28]: 20.8%
- viability, T/C [29]: 21.6%
- viability, T/C [30]: 25.9%

- IC50 (curve of compound): > 10000 nM
SMILES: NC1c2ccccc2OC12CCN(c1cnc3c(N4CCCc5ncccc54)n[nH]c3n1)CC2 (stereo not drawn)
- viability, T/C (compound 0.0316 µM): 114% [middle of 4 runs]
- viability, T/C (compound 0.1 µM): 106% [middle of 4 runs]
- viability, T/C (compound 0.316 µM): 115% [middle of 4 runs]
- viability, T/C (compound 1 µM): 112% [middle of 4 runs]
- viability, T/C (compound 3.16 µM): 114% (2×) and 102% and 108%
- viability, T/C (compound 10 µM): 105% (2×) and 86.2% and 87.2%

- IC50 (curve of first compound, second compound 0.00316 µM): 1840 nM
- IC50 (curve of first compound, second compound 0.01 µM): 4020 nM
- IC50 (curve of first compound, second compound 0.0316 µM): 2480 nM
- IC50 (curve of first compound, second compound 0.1 µM): 1820 nM
- IC50 (curve of first compound, second compound 0.316 µM): 3290 nM
- IC50 (curve of first compound, second compound 1 µM): 3300 nM
SMILES: CC1(O)CCCC1n1c(=O)c(C(F)F)cc2cnc(NC3CCN(S(C)(=O)=O)CC3)nc21 (stereo not drawn) + C=CC(=O)N1CCN(c2nc(OCC3CCCN3C)nc3c(F)c(-c4nc(N)cc(C)c4C(F)(F)F)c(Cl)cc23)C(C)C1
- viability, T/C (second compound 0.00316 µM, first compound 0.0316 µM): 99%
- viability, T/C (second compound 0.00316 µM, first compound 0.1 µM): 73.6%
- viability, T/C (second compound 0.00316 µM, first compound 0.316 µM): 62%
- viability, T/C (second compound 0.00316 µM, first compound 1 µM): 63.5%
- viability, T/C (second compound 0.00316 µM, first compound 3.16 µM): 57.3%
- viability, T/C (second compound 0.00316 µM, first compound 10 µM): 21.4%
- viability, T/C (second compound 0.01 µM, first compound 0.0316 µM): 92%
- viability, T/C (second compound 0.01 µM, first compound 0.1 µM): 81.3%
- viability, T/C (second compound 0.01 µM, first compound 0.316 µM): 71.1%
- viability, T/C (second compound 0.01 µM, first compound 1 µM): 69.1%
- viability, T/C (second compound 0.01 µM, first compound 3.16 µM): 64.5%
- viability, T/C (second compound 0.01 µM, first compound 10 µM): 19.5%
- viability, T/C (second compound 0.0316 µM, first compound 0.0316 µM): 94%
- viability, T/C (second compound 0.0316 µM, first compound 0.1 µM): 88.2%
- viability, T/C (second compound 0.0316 µM, first compound 0.316 µM): 65.8%
- viability, T/C (second compound 0.0316 µM, first compound 1 µM): 66.2%
- viability, T/C (second compound 0.0316 µM, first compound 3.16 µM): 53.1%
- viability, T/C (second compound 0.0316 µM, first compound 10 µM): 19.2%
- viability, T/C (second compound 0.1 µM, first compound 0.0316 µM): 96.2%
- viability, T/C (second compound 0.1 µM, first compound 0.1 µM): 80.4%
- viability, T/C (second compound 0.1 µM, first compound 0.316 µM): 62.2%
- viability, T/C (second compound 0.1 µM, first compound 1 µM): 62.7%
- viability, T/C (second compound 0.1 µM, first compound 3.16 µM): 54.5%
- viability, T/C (second compound 0.1 µM, first compound 10 µM): 21.5%
- viability, T/C (second compound 0.316 µM, first compound 0.0316 µM): 94.7%
- viability, T/C (second compound 0.316 µM, first compound 0.1 µM): 80.1%
- viability, T/C (second compound 0.316 µM, first compound 0.316 µM): 65%
- viability, T/C (second compound 0.316 µM, first compound 1 µM): 67.8%
- viability, T/C (second compound 0.316 µM, first compound 3.16 µM): 60%
- viability, T/C (second compound 0.316 µM, first compound 10 µM): 17.3%
- viability, T/C (second compound 1 µM, first compound 0.0316 µM): 88.5%
- viability, T/C (second compound 1 µM, first compound 0.1 µM): 81.2%
- viability, T/C (second compound 1 µM, first compound 0.316 µM): 63.7%
- viability, T/C (second compound 1 µM, first compound 1 µM): 62%
- viability, T/C (second compound 1 µM, first compound 3.16 µM): 62%
- viability, T/C (second compound 1 µM, first compound 10 µM): 14%

- IC50 [1]: > 10000 nM
- IC50 [2]: > 10000 nM
- IC50 [3]: > 10000 nM
- IC50 [4]: > 10000 nM
- IC50 [5]: > 10000 nM
- IC50 [6]: > 10000 nM
SMILES: Cc1nc(N2CCC3(CC2)COC(C)C3N)c(CO)nc1Sc1ccnc(N)c1Cl (stereo not drawn) + CCn1c(-c2cccnc2C(C)OC)c2c3cc(ccc31)N1CCOC(CC(NC(=O)C(C(C)C)N(C)C(=O)C3(F)CCN(C(=O)C#CC(C)(C)N(C)C)CC3)C(=O)N3CCCC(N3)C(=O)OCC(C)(C)C2)C1
- viability, T/C [7]: 109%
- viability, T/C [8]: 102%
- viability, T/C [9]: 108%
- viability, T/C [10]: 113%
- viability, T/C (second compound 0.000949 µM, first compound 3.16 µM): 112%
- viability, T/C (second compound 0.000949 µM, first compound 10 µM): 118%
- viability, T/C [11]: 102%
- viability, T/C [12]: 96.8%
- viability, T/C [13]: 107%
- viability, T/C [14]: 116%
- viability, T/C (second compound 0.003 µM, first compound 3.16 µM): 109%
- viability, T/C (second compound 0.003 µM, first compound 10 µM): 110%
- viability, T/C [15]: 93.2%
- viability, T/C [16]: 95.5%
- viability, T/C [17]: 112%
- viability, T/C [18]: 121%
- viability, T/C (second compound 0.00949 µM, first compound 3.16 µM): 114%
- viability, T/C (second compound 0.00949 µM, first compound 10 µM): 110%
- viability, T/C [19]: 91.7%
- viability, T/C [20]: 89.3%
- viability, T/C [21]: 108%
- viability, T/C [22]: 110%
- viability, T/C (second compound 0.03 µM, first compound 3.16 µM): 108%
- viability, T/C (second compound 0.03 µM, first compound 10 µM): 106%
- viability, T/C [23]: 91.2%
- viability, T/C [24]: 85.8%
- viability, T/C [25]: 103%
- viability, T/C [26]: 94.2%
- viability, T/C (second compound 0.0949 µM, first compound 3.16 µM): 105%
- viability, T/C (second compound 0.0949 µM, first compound 10 µM): 107%
- viability, T/C [27]: 82.5%
- viability, T/C [28]: 80.9%
- viability, T/C [29]: 95.6%
- viability, T/C [30]: 81.6%
- viability, T/C (second compound 0.3 µM, first compound 3.16 µM): 94.3%
- viability, T/C (second compound 0.3 µM, first compound 10 µM): 90.7%

From PubChem BioAssay AID2060895 (Molecular Pharmacology Branch, DTP, NCI, 2025)
